Data published in the supplement of paper PMC5908809.

Assays:
[1] = test system: normal NK cells expanded with K562-aAPC; assay: drug sensitivity score (DSS) (DSS units); higher = more sensitive; extreme values may be limits of the assay; conditions: 72 h; IL-2 2.5 ng/mL
Experimental: (§1)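 Drug sensitivity and resistance testing on K562-aAPC-expanded normal NK cells: 5 concentrations (10-fold steps over a 10,000-fold range), 72 h at 37 °C, viability by CellTiter-Glo normalised to DMSO and benzethonium chloride controls; DSS from the fitted curve.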

IMC-1 (IL-2 20 ng/mL) [2] = assay: percent inhibition of viability; higher = more inhibition; conditions: 72 h
KAI3 (IL-2 2.5 ng/mL) [3] = assay: as above; conditions: 72 h
[4] = test system: normal primary NK cells, pool 1 (3 donors) (IL-2 2.5 ng/mL); assay: as above; conditions: 72 h
KHYG-1 (IL-2 2.5 ng/mL) [5] = assay: as above; conditions: 72 h
SNK-6 (IL-2 2.5 ng/mL) [6] = assay: as above; conditions: 72 h
NK-YS (IL-2 2.5 ng/mL) [7] = assay: as above; conditions: 72 h
[8] = test system: normal primary NK cells, pool 3 (3 donors) (IL-2 2.5 ng/mL); assay: as above; conditions: 72 h
[9] = test system: normal primary NK cells, pool 1 (3 donors), resting (IL-2 0 ng/mL); assay: as above; conditions: 72 h
[10] = test system: normal primary NK cells, pool 2 (3 donors) (IL-2 2.5 ng/mL); assay: as above; conditions: 72 h
NK-92 (IL-2 2.5 ng/mL) [11] = assay: as above; conditions: 72 h
DERL-7 (IL-2 2.5 ng/mL) [12] = assay: as above; conditions: 72 h
YT (IL-2 2.5 ng/mL) [13] = assay: as above; conditions: 72 h
NKL (IL-2 2.5 ng/mL) [14] = assay: as above; conditions: 72 h
IMC-1 (IL-2 20 ng/mL) [15] = assay: drug sensitivity score (DSS) (DSS units); higher = more sensitive; extreme values may be limits of the assay; conditions: 72 h
KAI3 (IL-2 2.5 ng/mL) [16] = assay: as above; conditions: 72 h
[17] = test system: normal primary NK cells, pool 1 (3 donors) (IL-2 2.5 ng/mL); assay: as above; conditions: 72 h
KHYG-1 (IL-2 2.5 ng/mL) [18] = assay: as above; conditions: 72 h
SNK-6 (IL-2 2.5 ng/mL) [19] = assay: as above; conditions: 72 h
NK-YS (IL-2 2.5 ng/mL) [20] = assay: as above; conditions: 72 h
[21] = test system: normal primary NK cells, pool 3 (3 donors) (IL-2 2.5 ng/mL); assay: as above; conditions: 72 h
[22] = test system: normal primary NK cells, pool 1 (3 donors), resting (IL-2 0 ng/mL); assay: as above; conditions: 72 h
[23] = test system: normal primary NK cells, pool 2 (3 donors) (IL-2 2.5 ng/mL); assay: as above; conditions: 72 h
NK-92 (IL-2 2.5 ng/mL) [24] = assay: as above; conditions: 72 h
DERL-7 (IL-2 2.5 ng/mL) [25] = assay: as above; conditions: 72 h
YT (IL-2 2.5 ng/mL) [26] = assay: as above; conditions: 72 h
NKL (IL-2 2.5 ng/mL) [27] = assay: as above; conditions: 72 h
[28] = test system: normal NK cells expanded with K562-aAPC; assay: percent inhibition of viability; higher = more inhibition; conditions: 72 h, IL-2 2.5 ng/mL
Experimental: as §1

COc1cccc2c1C(=O)c1c(O)c3c(c(O)c1C2=O)C[C@@](O)(C(C)=O)C[C@@H]3O[C@H]1C[C@H](N)[C@H](O)[C@H](C)O1 [Daunorubicin] (max concentration tested 1000 nM)
Conditions	drug sensitivity score
DERL-7 (IL-2 2.5 ng/mL) [25]	19.7
IMC-1 (IL-2 20 ng/mL) [15]	20.7
KAI3 (IL-2 2.5 ng/mL) [16]	14.2
KHYG-1 (IL-2 2.5 ng/mL) [18]	16.9
NK-92 (IL-2 2.5 ng/mL) [24]	16
NK-YS (IL-2 2.5 ng/mL) [20]	17.3
NKL (IL-2 2.5 ng/mL) [27]	29.4
SNK-6 (IL-2 2.5 ng/mL) [19]	17.1
YT (IL-2 2.5 ng/mL) [26]	16.6
[1]	14.4
[17]	19.6
[21]	16.1
[22]	20.5
[23]	19.2

percent inhibition of viability [%]
Conditions	0.1 nM	1 nM	10 nM	100 nM	1000 nM
DERL-7 (IL-2 2.5 ng/mL) [12]	-3.3	-4.68	21.2	92.8	101
IMC-1 (IL-2 20 ng/mL) [2]	-9.54	-10.2	16.5	98.7	101
KAI3 (IL-2 2.5 ng/mL) [3]	-5.78	-13.2	19.7	61.9	106
KHYG-1 (IL-2 2.5 ng/mL) [5]	1.81	-4.06	-1.19	93.7	109
NK-92 (IL-2 2.5 ng/mL) [11]	-16.2	-14.1	-9.07	89.9	109
NK-YS (IL-2 2.5 ng/mL) [7]	-2.31	-8.67	23.9	77.1	106
NKL (IL-2 2.5 ng/mL) [14]	-2.22	6.13	88.5	104	109
SNK-6 (IL-2 2.5 ng/mL) [6]	-12.6	-10.6	-5.61	97.8	94.5
YT (IL-2 2.5 ng/mL) [13]	-3.13	-9.89	-7.78	93.8	110
[4]	-16.8	-3.87	17.1	94.1	98.6
[8]	-11.8	-3.78	7.93	81.6	99.9
[9]	-16.4	-27.6	23.2	91.1	94
[10]	-11.1	-1.9	13	92.7	94.4
[28]	-6.49	-5.27	0.18	77.3	101
